From ChEMBL document CHEMBL4196078, “Polypharmacology in HIV inhibition: can a drug with simultaneous action against two relevant targets be an alternative to combination therapy?” (Eur J Med Chem, 2018)
pEC50, pIC50: −log10 of the molar value. ≈ marks a conversion by molar mass, not a printed value.

Key:
[1] = target: T1, Human immunodeficiency virus type 1 reverse transcriptase (Human immunodeficiency virus 1, UniProt Q72547); assay: Inhibition of HIV1 reverse transcriptase polymerase p51/p66 after 10 to 20 mins in presence of [3H]-TTP by liquid scintillation counting method
[2] = target: T1, Human immunodeficiency virus type 1 reverse transcriptase; assay: Inhibition of HIV1 reverse transcriptase RNase H using RNA-DNA hybrid duplex after 30 mins by FRET-based microplate fluorescence assay
[3] = system: Human immunodeficiency virus 1; assay: Antiviral activity against HIV1 3B infected in human MT4 cells; assay type: functional, organism-based; conditions: Human immunodeficiency virus 1, 3B
[4] = system: Human immunodeficiency virus 1; assay: Antiviral activity against HIV1; assay type: functional, organism-based
[5] = system: Human immunodeficiency virus 1; assay: Antiviral activity against HIV1 Lai infected in human MOLT4 cells after 7 days by WST8 assay; assay type: functional, organism-based; conditions: Human immunodeficiency virus 1, M:B_Lai, MOLT-4, 168 h
[6] = system: Herpesviridae sp.; assay: Potency index, ratio of tenofovir EC50 to compound EC50 for antiviral activity against HSV; assay type: functional
[7] = system: Hepatitis B virus; assay: Antiviral activity against HBV; assay type: functional, organism-based
[8] = system: Herpesviridae sp.; assay: Antiviral activity against HSV; assay type: functional, organism-based
[9] = target: Human immunodeficiency virus type 1 reverse transcriptase (Human immunodeficiency virus 1, UniProt Q72547, E138K); assay: Inhibition of TSAO resistant HIV1 3B reverse transcriptase E138K mutant using polyC/oligo(dG12) as template/primer in presence of [3H]dGTP and calf thymus DNA after 30 mins
[10] = target: T1, Human immunodeficiency virus type 1 reverse transcriptase; assay: Inhibition of HIV1 3B reverse transcriptase using polyC/oligo(dG12) as template/primer in presence of [3H]dGTP and calf thymus DNA after 30 mins
[11] = system: Human immunodeficiency virus 1; assay: Antiviral activity against HIV1 infected in human CEM cells assessed as reduction in giant cell formation by microscopic method; assay type: functional, organism-based; conditions: Human immunodeficiency virus 1, CCRF-CEM
[12] = Half life of the compound in PBS by HPLC analysis; assay type: physicochemical
[13] = system: Human immunodeficiency virus 1; assay: Antiviral activity against PFA-resistant HIV1 harboring RT W88G mutant infected in human P4/R5 cells after 48 hrs by beta-galactosidase reporter gene assay; assay type: functional, organism-based; conditions: Human immunodeficiency virus 1, P4/R5, 48 h
[14] = system: Human immunodeficiency virus 1; assay: Antiviral activity against HIV1 3B infected in human CEM/0 after 4 days by microscopic method; assay type: functional, organism-based; conditions: Human immunodeficiency virus 1, 3B, CCRF-CEM, 96 h
[15] = Stability in culture medium containing 10% FBS at 100 uM after 72 hrs by HPLC analysis; assay type: ADME; conditions: cattle, read-out: Stability
[16] = system: Human immunodeficiency virus 2; assay: Antiviral activity against HIV2; assay type: functional, organism-based
[17] = system: Human alphaherpesvirus 3; assay: Antiviral activity against VZV; assay type: functional, organism-based
[18] = system: Moloney murine sarcoma virus; assay: Antiviral activity against MSV; assay type: functional, organism-based
[19] = system: Human immunodeficiency virus 2; assay: Antiviral activity against HIV2 D194 infected in human PBMC after 5 days by MTT assay; assay type: functional, organism-based, Human immunodeficiency virus type 2 (ISOLATE D194); conditions: Human immunodeficiency virus 2, 120 h
[20] = system: Human immunodeficiency virus 1; assay: Antiviral activity against HIV1 3B infected in human MT4 cells by MTT assay; assay type: functional, organism-based; conditions: Human immunodeficiency virus 1, 3B
[21] = system: Human immunodeficiency virus 1; assay: Antiviral activity against HIV1 Lai infected in human CEM-SS cells after 5 days by MTT assay; assay type: functional, organism-based; conditions: Human immunodeficiency virus 1, M:B_Lai, 120 h
[22] = system: Human immunodeficiency virus 1; assay: Antiviral activity against HIV1 3B infected in human PBMC after 5 days by MTT assay; assay type: functional, organism-based; conditions: Human immunodeficiency virus 1, 3B, 120 h
[23] = target: T1, Human immunodeficiency virus type 1 reverse transcriptase; assay: Inhibition of HIV1 reverse transcriptase RNase H
[24] = target: Gag-Pol polyprotein (Human immunodeficiency virus type 1 group M subtype B (isolate HXB2)(HIV-1), UniProt P04585); assay: Inhibition of HIV1 reverse transcriptase polymerase; design: species or system Human immunodeficiency virus 1

With `COc1ccc2ccccc2c1/C=N/NC(=O)c1ccc(O)c(O)c1` the pIC50 [1] was less than 4.60 and the pIC50 [2] was 6.30.
With `CCc1c(Sc2cc(C)cc(C)c2)n(COCCO)c(=O)[nH]c1=O` the pEC50 [3] was 8.15.
Compound `CC(C)(C)NC(=O)[C@H]1N(C(=O)[C@@H](O)[C@H](Cc2ccccc2)NC(=O)CC(C)(C)C(=O)O)CSC1(C)C` has a pEC50 [4] of 7.28.
`Cc1cccc(C)c1OCC(=O)N[C@@H](Cc1ccccc1)[C@H](O)C(=O)N1CSC(C)(C)[C@H]1C(=O)NC(C)(C)C` showed a pEC50 [5] of 7.04.
In the case of `Nc1cc(OCCOCP(=O)(O)O)nc(N)n1`, the “Ratio EC50” value [6] was 20, the pEC50 [7] was 6.52 and the EC50 [8] was 6.3 µg/mL (≈ 23.8 µM). It also gave an EC50 [4] of 0.8 µg/mL.
With `CCOC(=O)P(=O)(O)OCCCn1c(=O)c(C)cn([C@@H]2O[C@H](CO[Si](C)(C)C(C)(C)C)[C@@]3(OS(=O)(=O)C=C3N)[C@H]2O[Si](C)(C)C(C)(C)C)c1=O` the pIC50 [9] was 3.37 to 3.53, the pIC50 [10] was 4.96 to 5.43 and the pEC50 [11] was 5.35 to 7.10. The half-life [12] was 30 min.
Compound `COC(=O)P(=O)([O-])OCCCn1c(=O)c(C)cn([C@@H]2O[C@H](CO[Si](C)(C)C(C)(C)C)[C@@]3(OS(=O)(=O)C=C3N)[C@H]2O[Si](C)(C)C(C)(C)C)c1=O.[Na+]` has a pIC50 [9] of 3.37 to 3.53, a pIC50 [10] of 4.96 to 5.43 and a pEC50 [11] of 5.35 to 7.10. The half-life [12] was 30 min.
For `Cc1cn([C@@H]2O[C@H](CO[Si](C)(C)C(C)(C)C)[C@@]3(OS(=O)(=O)C=C3N)[C@H]2O[Si](C)(C)C(C)(C)C)c(=O)n(CCCOP(=O)(O)C(=O)O)c1=O`, the pIC50 [9] was 3.37 to 3.53, the pIC50 [10] was 4.96 to 5.43 and the pEC50 [11] was 5.35 to 7.10. The half-life [12] was 30 min and the pEC50 [13] was 6.80.
For `Cc1cn([C@@H]2O[C@H](CO[Si](C)(C)C(C)(C)C)[C@@]3(OS(=O)(=O)C=C3N)[C@H]2O[Si](C)(C)C(C)(C)C)c(=O)n(CCCOP(=O)(O)C(=O)OCc2ccccc2)c1=O`, the pIC50 [9] was 3.37 to 3.53, the pIC50 [10] was 4.96 to 5.43 and the pEC50 [11] was 5.35 to 7.10. The half-life [12] was 30 min.
Work on `COC(=O)P(=O)(OC)OCCCn1c(=O)c(C)cn([C@@H]2O[C@H](CO[Si](C)(C)C(C)(C)C)[C@@]3(OS(=O)(=O)C=C3N)[C@H]2O[Si](C)(C)C(C)(C)C)c1=O` (stereo partly specified) yielded a pEC50 [11] of 5.35 to 7.10 and a half-life [12] of 30 min.
Work on `Cc1cn([C@@H]2O[C@H](CO[Si](C)(C)C(C)(C)C)[C@@]3(OS(=O)(=O)C=C3N)[C@H]2O[Si](C)(C)C(C)(C)C)c(=O)n(CCCn2c(=O)c(C)cn([C@H]3C[C@H](N=[N+]=[N-])[C@@H](CO)O3)c2=O)c1=O` yielded a pEC50 [14] of 7.05.
Compound `Cc1cn([C@@H]2O[C@H](CO[Si](C)(C)C(C)(C)C)[C@@]3(OS(=O)(=O)C=C3N)[C@H]2O[Si](C)(C)C(C)(C)C)c(=O)n(CCCO)c1=O` has a pEC50 [11] of 7.00.
Compound `Cc1cn([C@H]2C=C[C@@H](COC(=O)OC[C@H]3O[C@@H](n4cc(C)c(=O)[nH]c4=O)C[C@@H]3N=[N+]=[N-])O2)c(=O)[nH]c1=O` has a pEC50 [4] of 8.22.
For `NC(=O)c1ncn([C@@H]2O[C@H](COP(=O)(O)OC[C@@H]3CC[C@H](n4cnc5c(=O)[nH]cnc54)O3)[C@@H](O)[C@H]2O)n1`, the remaining at 72 h, 100 µM [15] was 44%.
`Nc1nc(N)nc(OCCOCP(=O)(O)O)n1` showed a pEC50 [16] of 5.43, a pEC50 [17] of 5.51 and a pEC50 [18] of 6.46. The pEC50 [7] was 5.51 and the pEC50 [4] was 5.62.
In the case of `CCc1c(Sc2cc(C)cc(C)c2)n(CCCCC(=O)NCCCCCCCCCCCCNc2ccn([C@H]3CC[C@@H](CO)O3)c(=O)n2)c(=O)[nH]c1=O`, the pEC50 [19] was 6.35, the pEC50 [20] was 6.35 and the pEC50 [21] was 6.35. It also gave a pEC50 [22] of 6.35.
With `Cc1cn([C@H]2C=C[C@@H](COC(=O)OC[C@@H]3C=C[C@H](n4cc(C)c(=O)[nH]c4=O)O3)O2)c(=O)[nH]c1=O` the pEC50 [4] was 6.62.
In the case of `Cc1cn([C@H]2C[C@H](N=[N+]=[N-])[C@@H](COC(=O)NCCCCNC(=O)OC[C@H]3O[C@@H](n4cc(C)c(=O)[nH]c4=O)C[C@@H]3N=[N+]=[N-])O2)c(=O)[nH]c1=O`, the pEC50 [4] was 4.59.
Work on `Cc1cn([C@H]2C=C[C@@H](COC(=O)NCCCCNC(=O)OC[C@H]3O[C@@H](n4cc(C)c(=O)[nH]c4=O)C[C@@H]3N=[N+]=[N-])O2)c(=O)[nH]c1=O` yielded a pEC50 [4] of 4.02.
In the case of `COc1ccc2ccccc2c1/C=N/NC(=O)c1ccc(-c2ccccc2)cc1`, the pIC50 [1] was 6.30 and the pIC50 [2] was 5.30.
`O=C(Oc1ccc2c(c1OC(=O)c1ccccc1)C(=O)c1ccccc1C2=O)c1ccccc1` showed a pIC50 [23] of 4.89 and a pIC50 [24] of 4.92.
Work on `Cc1cn([C@H]2C[C@H](N=[N+]=[N-])[C@@H](COP(=O)(O)OC[C@H]3O[C@@H](n4cnc(C(N)=O)n4)[C@H](O)[C@@H]3O)O2)c(=O)[nH]c1=O` yielded a remaining at 72 h, 100 µM [15] of 36%.
Work on `Cc1cn([C@H]2C[C@H](N=[N+]=[N-])[C@@H](COC(=O)OC[C@H]3O[C@@H](n4cc(C)c(=O)[nH]c4=O)C[C@@H]3N=[N+]=[N-])O2)c(=O)[nH]c1=O` yielded a pEC50 [4] of 8.70.
In the case of `COc1ccc2ccccc2c1/C=N/NC(=O)c1ccc(Oc2ccccc2)cc1`, the pIC50 [1] was 6.40 and the pIC50 [2] was 5.15.
Compound `Cc1cn([C@H]2C[C@H](N=[N+]=[N-])[C@@H](COP(=O)(OC[C@@H]3CC[C@H](n4cnc5c(=O)[nH]cnc54)O3)OC[C@@H]3CC[C@H](n4cnc5c(=O)[nH]cnc54)O3)O2)c(=O)[nH]c1=O` has a pEC50 [3] of 6.78.
`Cc1cccc(C)c1OCC(=O)N[C@@H](Cc1ccccc1)[C@H](OC(=O)CCCC(=O)NCC(=O)OC[C@H]1O[C@@H](n2cc(C)c(=O)[nH]c2=O)C[C@@H]1N=[N+]=[N-])C(=O)N1CSC(C)(C)[C@H]1C(=O)NC(C)(C)C` showed a pEC50 [5] of 10.00.
Compound `Cc1cn([C@H]2C[C@H](N=[N+]=[N-])[C@@H](COP(=O)(O)OC[C@@H]3CC[C@H](n4cnc5c(=O)[nH]cnc54)O3)O2)c(=O)[nH]c1=O` has a remaining at 72 h, 100 µM [15] of 57% and a pEC50 [3] of 8.70.
With `Cc1cn([C@H]2C=C[C@@H](COC(=O)OCc3ccc(NC(=O)/C(O)=C/C(=O)c4cc(OCc5ccccc5)cc(OCc5ccccc5)c4)cc3)O2)c(=O)[nH]c1=O` (stereo in doubt) the pEC50 [4] was 6.37.
Compound `Nc1ncnc2c1ncn2CCOCP(=O)(O)O` [ADEFOVIR] has a pIC50 [7] of 6.15 and a pEC50 [4] of 5.70.
`O=C1c2ccccc2C(=O)c2c1ccc(O)c2O` [ATHRAQUINONES A] showed a pIC50 [23] of less than 4.00 and a pIC50 [24] of 4.10.
For `O=c1[nH]cnc2c1ncn2[C@H]1CC[C@@H](CO)O1` [DIDANOSINE], the pEC50 [3] was 4.88.
`C[C@H](Cn1cnc2c(N)ncnc21)OCP(=O)(O)O` [TENOFOVIR ANHYDROUS] showed an EC50 [8] of 105 µg/mL (≈ 366 µM).
`Cc1cn([C@H]2C[C@H](N=[N+]=[N-])[C@@H](CO)O2)c(=O)[nH]c1=O` [ZIDOVUDINE] gave a pEC50 [3] of 8.70, a pEC50 [4] of 6.90 and a pEC50 [5] of 8.21.
